Laboratory results: US20140088197A1, “MIXED CRYSTAL AGOMELATINE (FORM VIII), PREPARATION METHOD AND USE THEREOF AND PHARMACEUTICAL COMPOSITION CONTAINING SAME” (LES LABORATORIES SERVIER, priority 2011, published 2014)
Converted amounts (≈) assume the structure as drawn. Like-named read-outs stand apart in the source and are kept apart here.

Tests used:
Format in all cases: physicochemical
[1] = Determination of crystalline stability (pharmacopoeia stability assessment method); set-up: key to Crystalline stability, long term testing (6 months) / Crystalline stability, long term testing (9 months) / Crystalline stability, long term testing (12 months) / Crystalline stability, influencing factor: high temperature / Crystalline stability, influencing factor: illumination / Crystalline stability, influencing factor: high humidity / Crystalline stability, accelerated testing: √—stable; x—unstable; settings: for Crystalline stability, influencing factor: high temperature: 60° C.; for Crystalline stability, influencing factor: high temperature / Crystalline stability, influencing factor: high humidity / Crystalline stability, influencing factor: illumination: exposed for 10 days; for Crystalline stability, influencing factor: high humidity: 92.5% RH; for Crystalline stability, influencing factor: high humidity / Crystalline stability, long term testing (6 months) / Crystalline stability, long term testing (9 months) / Crystalline stability, long term testing (12 months): 25° C.; for Crystalline stability, accelerated testing: hermetically sealed for 6 months, 30° C., 65% RH; for Crystalline stability, long term testing (6 months) / Crystalline stability, long term testing (9 months) / Crystalline stability, long term testing (12 months): hermetically sealed, 60% RH
Source text: 4. Determination of Crystalline Stability

[2] = Storage stability at 40° C. for 20 days, purity and content by HPLC; settings: for Content: external standard method; for Purity: internal standard method
Experimental: Agomelatine crystalline forms VI and VIII (obtained through embodiment 2) are each placed in thermostatic containers at a temperature of 40° C. and stored for 20 days, with the stability of these samples being studied using the method of High Performance Liquid Chromatography.
1. Purity Measurement of the Sample
Chromatographic conditions: Octadecyl silane chemically bonded silica is used as packing; a mixed solution of 10 mmol/L phosphate buffer (adjusted to pH 7.0 with sodium hydroxide) and acetonitrile in the ratio 2:7 by volume acts as the mobile phase; column temperature 40° C.; and detection wavelength 220 nm. Purity is measured using an internal standard method.
In the mobile phase, crystalline forms VI and VIII are distributed into 1 mg/mL solutions, 10 μL of each of which are then passed into a liquid chromatograph, with their chromatograms being recorded.
The reference sample purity measurement method was used, with measurements being made using an […], the results can be seen in Table I.

[3] = Measurement of water solubility (HPLC, external standard); settings: for solubility: water
Source text: 3. Measurement of Water Solubility
The HPLC method was used to determine water solubility, with measurements being made using an external standard method.

[4] = compared with crystalline form VI
[5] = after storage in thermostatically controlled containers at 40° C. for 20 days

Structure (SMILES)	Crystalline stability, influencing factor: high temperature [1]	Crystalline stability, influencing factor: high humidity [1]	Stability under high temperature compared with crystalline form VI [1, 4]	Crystalline stability, influencing factor: illumination [1]	Crystalline stability, accelerated testing [1]	Crystalline stability, long term testing (6 months) [1]	Crystalline stability, long term testing (9 months) [1]	Crystalline stability, long term testing (12 months) [1]	Content [2, 5]	Purity [2, 5]	Content ([2]; before storage)	Purity ([2]; before storage)	Solubility compared with crystalline form VI [3, 4]	solubility [3]	Crystal transition under extreme conditions ([1]; high temperature of 60° C. for 10 days)	solubility ([3]; read-out: Solubility)
COc1ccc2cccc(CCNC(C)=O)c2c1 [Form VIII, N-[2-(7-methoxy-1-naphthyl)ethyl]acetamide]	√*	√	greater stability under high temperature	√	√	√	√	√	100.1%	99.7%	100.3%	99.8%	comparable solubility	335 µg/mL (≈ 1380 µM)	–	–
COc1ccc2cccc(CCNC(C)=O)c2c1 [Crystalline form VI, N-[2-(7-methoxy-1-naphthyl)ethyl]acetamide, reference compound]	x*	√	–	√	√	√	√	x	99.8%	99.6%	100.1%	99.7%	–	–	small amounts of crystal transition can occur	336 µg/mL (≈ 1380 µM)
